Results: patent US20220056019A1, “FARNESOID X RECEPTOR AGONISTS AND USES THEREOF” (Metacrine, Inc., priority 2018, published 2022)

Target: T1, hFXR (Homo sapiens, UniProt Q96RI1)
T1 construct: expressed in transfected cells; host or cells: CV-1 cells
T1 sequence (Q96RI1 1-486): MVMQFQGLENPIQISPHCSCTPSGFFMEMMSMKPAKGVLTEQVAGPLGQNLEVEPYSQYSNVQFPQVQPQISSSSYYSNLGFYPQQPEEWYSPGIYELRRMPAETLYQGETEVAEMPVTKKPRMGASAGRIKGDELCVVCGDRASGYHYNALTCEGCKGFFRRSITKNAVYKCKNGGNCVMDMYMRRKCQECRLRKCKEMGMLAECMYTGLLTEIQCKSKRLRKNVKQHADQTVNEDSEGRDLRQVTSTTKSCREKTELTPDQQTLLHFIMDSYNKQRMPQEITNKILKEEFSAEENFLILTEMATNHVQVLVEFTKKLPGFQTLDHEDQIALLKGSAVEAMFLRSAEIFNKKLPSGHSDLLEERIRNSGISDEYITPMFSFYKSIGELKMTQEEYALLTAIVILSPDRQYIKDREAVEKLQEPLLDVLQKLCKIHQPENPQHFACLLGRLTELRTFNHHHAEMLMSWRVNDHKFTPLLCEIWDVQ
T1 sequence (P19793 1-462 partner): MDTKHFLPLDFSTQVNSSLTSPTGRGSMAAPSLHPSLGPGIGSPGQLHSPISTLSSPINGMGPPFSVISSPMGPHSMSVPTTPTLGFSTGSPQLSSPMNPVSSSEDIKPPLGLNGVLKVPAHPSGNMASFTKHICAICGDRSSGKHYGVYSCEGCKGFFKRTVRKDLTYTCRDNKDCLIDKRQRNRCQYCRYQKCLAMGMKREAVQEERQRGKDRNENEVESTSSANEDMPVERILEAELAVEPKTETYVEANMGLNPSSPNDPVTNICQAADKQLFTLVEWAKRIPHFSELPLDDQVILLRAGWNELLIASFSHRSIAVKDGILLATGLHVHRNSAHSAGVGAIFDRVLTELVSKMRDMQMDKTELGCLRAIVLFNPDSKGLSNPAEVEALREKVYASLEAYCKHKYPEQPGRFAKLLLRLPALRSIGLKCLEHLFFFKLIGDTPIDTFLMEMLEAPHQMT
Assay: In Vitro FXR Assay (TK): TK-ECRE-luc reporter in transfected CV-1 cells
Type: cell-based
Conditions: 18 hrs incubation, luminescence
Summary of the method: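 CV-1 cells in DMEM with 10% charcoal-stripped FBS were transiently co-transfected with hFXR, hRXR, TK-ECRE-luc reporter and pCMX-YFP plasmids over 18 h at 37 °C. Compounds serially diluted in DMSO were added for 18 h; cells were then lysed and luciferase luminescence measured.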

Row | SMILES | EC50
1 | CCOC(=O)NC[C@H]1CC[C@H](C(=O)N(C[C@H]2CC[C@H](c3ccc(OC)c(C)c3)CC2)c2cccc(-c3cnn(C(C)C)c3)c2)CC1 [Compound 12.03, Ethyl (((trans)-4-((3-(1-isopropyl-1H-pyrazol-4-yl)phenyl)(((trans)-4-(4-methoxy-3-methylphenyl)cyclohexyl)methyl)carbamoyl)cyclohexyl)methyl)car-bamate] | 50 to 1000 nM
2 | COc1ccc(C23CCC(CN(c4nccc(-c5cnn(C(C)C)c5)n4)C(=O)[C@H]4CC[C@H](OC(=O)N5CC(O)C5)CC4)(CC2)CC3)cc1C [Compound 4.60, 4-((4-(1-Isopropyl-1H-pyrazol-4-yl)pyrimidin-2-yl)((4-(4-methoxy-3-methylphenyl)bicyclo [2.2.2]octan-1-yl)methyl)carbamoyl)(trans-cyclohexyl) 3-hydroxyazetidine-1-carboxylate] | ≤ 50 nM
3 | COc1ccc([C@H]2CC[C@H](CN(c3cc(-c4coc(C5CC5)n4)ccn3)C(=O)[C@H]3CC[C@H](OC(=O)NCC(C)(C)CO)CC3)CC2)nc1C [Compound 1, trans-4-((4-(2-Cyclopropyloxazol-4-yl)pyridin-2-yl)((trans-4-(5-methoxy-6-methylpyridin-2-yl)cyclohexyl)methyl)carbamoyl)cyclohexyl (3-hydroxy-2,2-dimethylpropyl)carbamate] | ≤ 50 nM
4 | CC(C)c1ccc(C23CCC(CN(c4nccc(-c5cnn(C(C)C)c5)n4)C(=O)[C@H]4CC[C@H](OC(=O)N5CC(O)C5)CC4)(CC2)CC3)cc1 [Compound 4.62, 4-((4-(1-Isopropyl-1H-pyrazol-4-yl)pyrimidin-2-yl)((4-(4-isopropylphenyl)bicyclo[2.2.2]octan-1-yl)methyl)carbamoyl)(trans-cyclohexyl) 3-hydroxyazetidine-1-carboxylate] | ≤ 50 nM
5 | COc1ccc(C23CCC(CN(c4cc(-c5cnn(C(C)C)c5)ccn4)C(=O)[C@H]4CC[C@H](OC(=O)N5CCOCC5)CC4)(CC2)CC3)cc1C [Compound 4.14, 4-((4-(1-Isopropyl-1H-pyrazol-4-yl)pyridin-2-yl)((4-(4-methoxy-3-methylphenyl)bicyclo [2.2.2]octan-1-yl)methyl)carbamoyl)cyclohexyl morpholine-trans-4-carboxylate] | ≤ 50 nM
6 | COc1ccc([C@H]2CC[C@H](CN(c3cc(-c4cnn(C(C)C)c4)ccn3)C(=O)[C@H]3CC[C@H](OC(=O)NC[C@H](F)CO)CC3)CC2)cc1C [Compound 2.30, trans-4-((4-(1-Isopropyl-1H-pyrazol-4-yl)pyridin-2-yl)(((trans)-4-(4-methoxy-3-methylphenyl)cyclohexyl)methyl)carbamoyl) cyclohexyl((S)-2-fluoro-3-hydroxypropyl)carbamate] | ≤ 50 nM
7 | COc1ccc([C@H]2CC[C@H](CN(c3cc(-c4cnn(C(C)C)c4)ccn3)C(=O)[C@H]3CC[C@H](CO)CC3)CC2)cc1C [Compound 17, (trans)-4-(Hydroxymethyl)-N-(4-(1-isopropyl-1H-pyrazol-4-yl)pyridin-2-yl)-N-(((trans)-4-(4-methoxy-3-methylphenyl)cyclohexyl)methyl)cy-clohexanecarboxamide] | ≤ 50 nM
8 | COc1ccc(C23CCC(CN(c4cc(-c5cnn(C6(C)CCC6)c5)ccn4)C(=O)[C@H]4CC[C@H](OC(=O)N5CC(CS(C)(=O)=O)C5)CC4)(CC2)CC3)cc1C [Compound 25.20, 4-(((4-(4-Methoxy-3-methylphenyl)bicyclo[2.2.2]octan-1-yl)methyl)(4-(1-(1-methylcyclobutyl)-1H-pyrazol-4-yl)pyridin-2-yl)carbamoyl)(trans-cyclohexyl) 3-((methysulfonyl)methyl)azetidine-1-carboxylate] | ≤ 50 nM
9 | COc1ccc(C23CCC(CN(c4cc(-n5cnc(C(C)C)c5)ccn4)C(=O)[C@H]4CC[C@H](OC(=O)N5CC(O)C5)CC4)(CC2)CC3)cc1C [Compound 23.13, 4-((4-(4-Isopropyl-1H-imidazol-1-yl)pyridin-2-yl)((4-(4-methoxy-3-methylphenyl)bicyclo[2.2.2]octan-1-yl)methyl)carbamoyl)cyclohexyl trans-3-hydroxyazetidine-1-carboxylate] | ≤ 50 nM
10 | COc1ccc([C@H]2CC[C@H](CN(c3cc(-c4cnn(C(C)C)c4)ccn3)C(=O)[C@H]3CC[C@H](OC(=O)N4CC(OCCO)C4)CC3)CC2)cc1C [Compound 2.11, trans-4-((4-(1-Isopropyl-1H-pyrazol-4-yl)pyridin-2-yl)(((trans)-4-(4-methoxy-3-methylphenyl)cyclohexyl)methyl)carbamoyl) cyclohexyl3-(2-hydroxyethoxy)azetidine-1-carboxylate] | ≤ 50 nM
11 | COc1ccc([C@H]2CC[C@H](CN(c3cc(-c4cnn(C(C)C)c4)ccn3)C(=O)[C@H]3CC[C@H](OC(=O)NCC(C)(C)CO)CC3)CC2)cc1C [Compound 2.20, trans-4-((4-(1-Isopropyl-1H-pyrazol-4-yl)pyridin-2-yl) ((trans-4-(4-methoxy-3-methylphenyl)cyclohexyl)methyl)carbamoyl) cyclohexyl(3-hydroxy-2,2-dimethylpropyl)carbamate] | ≤ 50 nM
12 | COc1ccc([C@H]2CC[C@H](CN(c3cc(-c4cnn(C(C)C)c4)ccn3)C(=O)[C@H]3CC[C@H](OC(=O)NC(CF)CF)CC3)CC2)cc1C [Compound 2.35, trans-4-((4-(1-Isopropyl-1H-pyrazol-4-yl)pyridin-2-yl)(((trans)-4-(4-methoxy-3-methylphenyl)cyclohexyl)methyl)carbamoyl) cyclohexyl(1,3-difluoropropan-2-yl) carbamate] | ≤ 50 nM
13 | COCC(=O)N[C@H]1CC[C@H](C(=O)N(CC23CCC(c4ccc(OC)c(C)c4)(CC2)CC3)c2cc(-c3cnc(C(C)C)s3)ccn2)CC1 [Compound 9.05, (trans)-N-(4-(2-Isopropylthiazol-5-yl)pyridin-2-yl)-N-((4-(4-methoxy-3-methylphenyl)bicyclo[2.2.2]octan-1-yl)methyl)-4-(2-methoxyacetamido)cyclohexanecar-boxamide] | ≤ 50 nM
